From patent publication US20240294876A1, “METHODS FOR THE EXPANSION OF HUMAN GRANULOCYTE-MACROPHAGE PROGENITORS AND APPLICATIONS THEREOF” (University of Southern California, priority 2021, published 2024)

B1: G-CSF: granulocyte colony stimulating factor (protein, UniProt P09919 31-207, looked up)
Granulocyte …: TPLGPASSLPQSFLLKCLEQVRKIQGDGAALQEKLVSECATYKLCHPEELVLLGHSLGIPWAPLSSCPSQALQLAGCLSQLHSGLFLYQGLLQALEGISPELGPTLDTLQLDVADFATTIWQQMEELGMAPALQPTQGAMPAFASAFQRRAGGVLVASHLQSFLEVSYRVLRHLAQP
B2: M-CSF: macrophage differentiation factor (protein, UniProt P09603 33-554, looked up)
Macrophage colony-stimulating …: EEVSEYCSHMIGSGHLQSLQRLIDSQMETSCQITFEFVDQEQLKDPVCYLKKAFLLVQDIMEDTMRFRDNTPNAIAIVQLQELSLRLKSCFTKDYEEHDKACVRTFYETPLQLLEKVKNVFNETKNLLDKDWNIFSKNCNNSFAECSSQDVVTKPDCNCLYPKAIPSSDPASVSPHQPLAPSMAPVAGLTWEDSEGTEGSSLLPGEQPLHTVDPGSAKQRPPRSTCQSFEPPETPVVKDSTIGGSPQPRPSVGAFNPGMEDILDSAMGTNWVPEEASGEASEIPVPQGTELSPSRPGGGSMQTEPARPSNFLSASSPLPASAKGQQPADVTGTALPRVGPVRPTGQDWNHTPQKTDHPSALLRDPPEPGSPRISSLRPQGLSNPSTLSAQPQLSRSHSSGSVLPLGELEGRRSTRDRRSPAEPEGGPASEGAARPLPRFNSVPLTDTGHERQSEGSFSPQLQESVFHLLVPSVILVLLAVGGLLFYRWRRRSHQEPQRADSPLEQPEGSPLTQDDRQVELPV

How the values were obtained:
[1] = system: bone marrow cells isolated from adult C57BL/6 mice; test: Small molecule screen for colony formation of mouse bone marrow cells in serum-free N2B27; format: cell-based; conditions: 96-well plates, serum-free N2B27, single small molecule, 7 days in culture
From the text: (§1) (A) Schematic of the experimental design to identify growth factors and small molecules that can promote expansion of mouse bone marrow-derived stem cells. (B) Representative phase-contrast images of mouse bone marrow cells cultured in N2B27 supplemented with the indicated small molecule inhibitors for 7 days. (C) Representative phase-contrast images of mouse bone marrow cells cultured in N2B27 supplemented with SCF plus GDC0879 or SB590885 for 3 passages. (D) Cell growth curves. Bone marrow cells isolated from C57BL/6J mice were plated into 24-well plates at a density of 2×10^5 cells/well and cultured in B7 medium supplemented with the indicated small molecules/growth factor. Cells were counted and passaged every 3 days. Data are represented as mean±SD from three independent experiments. (E) Bone marrow cells isolated from C57BL/6J mice were cultured in B7 medium supplemented with SCF/2i. Cells were passaged every 3 days. Representative phase-contrast pictures showing SCF/2i cells at different passages. (F) Cytogenetic analysis of SCF/2i cells using the GWT banding method. Bone marrow cells isolated from a female C57BL/6J mouse were expanded in SCF/2i for 8 passages before used for cytogenetic analysis. […] (G) Sequential images of individual bone marrow cells during expansion in B7 medium supplemented with SCF/2i. SCF/2i-expanded bone marrow cells were plated into 96-well plates at a density of 50 cells/well and cultured in SCF/2i. Sequential images were taken using the Keyence BZ-X710 microscopy every 24 hours. 15.7±4.0 colonies formed per well on day 4 (n=3×96). Data are represented as mean±SD from three independent experiments.
Based on this finding, it was postulated that many, if not all, types of stem cells can be maintained during long-term in vitro culture by inhibiting signaling pathways responsible for initiating differentiation. […]

mouse GMPs = test: Ex vivo expansion of mouse bone marrow-derived cells / mouse GMPs; format: cell-based; conditions: for ability to mimic the effect of SKL2001 for the expansion of mouse GMPs: in place of SKL2001; for effect on expansion of mouse GMPs in SCF/2i: Wnt/β-catenin signaling inhibitor added to SCF/2i
From the text: as §1
Mouse GMP derivation, expansion, and differentiation. Cells were cultured at 37° C. in a 5% CO2 water jacket incubator (Thermo Scientific). Bone marrow cells isolated from C57BL/6J, mTmG or CAG-Cas9-EGFP mice were plated into 6-well plates at a density of 2×10^6 cells/well and cultured in 2 mL B7 medium supplemented with 50 ng/mL SCF, 1 μM GDC-0879, and 10 μM SKL2001 (SCF/2i). After 3-4 days, cells were dissociated into single-cell suspension by pipetting up and down and replated into 6-well plates at a density of 2×10^6 cells/well and cultured in 2 mL B7 medium supplemented with SCF/2i. After 2 passages in SCF/2i, the majority of cells were GMPs. GMPs were routinely passaged every 3 days. To induce differentiation, GMPs were plated into 10 cm tissue culture dishes and cultured in RPMI-1640 medium containing 10% FBS and supplemented with either 20 ng/mL M-CSF (for macrophage differentiation) or 20 ng/mL G-CSF (for granulocyte differentiation). GMP-derived macrophages were harvested on day 7 (medium was changed once on day 4) and GMP-derived granulocytes were harvested on day 3 and used for the further experiments.
Development of defined conditions for the long-term ex vivo expansion of hematopoietic stem/progenitor cells. To develop conditions for the long-term expansion of stem or progenitor cells of the hematopoietic system, screening was conducted to identify small molecules and growth factors/cytokines that can promote their ex vivo expansion (see FIG. 3A). Specifically, bone marrow cells isolated from adult C57BL/6 mice were plated into 96-well plates in serum-free N2B27 medium. Then a first-round small molecule screening was performed. It was reasoned that if a small molecule can block differentiation or promote expansion of stem cells, these stem cells should form colonies with a uniform cell morphology. […] Upon passaging, however, no new colonies were formed in culture with any of the 5 small molecule inhibitors. A second-round screening was conducted to identify growth factors/cytokines that could further improve the expansion of the colonies.
More importantly, these cells could be expanded robustly at clonal density (see FIG. 3G).
SCF/2i-expanded cells are GMPs. […]

myeloperoxidase (MPO) = molecular target: T1, myeloperoxidase (MPO) (Mus musculus, UniProt P11247); test: Myeloperoxidase (MPO) activity assay in SCF/2i GMP-derived granulocytes and blood neutrophils; format: cell-based; conditions: 100 nM for 2 hours
T1 construct: The supernatants were harvested and MPO activities were measured using the neutrophil MPO activity assay kit; endogenous in cells; host or cells: mouse SCF/2i GMPs, SCF/2i GMP-derived granulocytes and mouse blood neutrophils; MPO measured in culture supernatant after PMA stimulation
T1 sequence (P11247 139-718): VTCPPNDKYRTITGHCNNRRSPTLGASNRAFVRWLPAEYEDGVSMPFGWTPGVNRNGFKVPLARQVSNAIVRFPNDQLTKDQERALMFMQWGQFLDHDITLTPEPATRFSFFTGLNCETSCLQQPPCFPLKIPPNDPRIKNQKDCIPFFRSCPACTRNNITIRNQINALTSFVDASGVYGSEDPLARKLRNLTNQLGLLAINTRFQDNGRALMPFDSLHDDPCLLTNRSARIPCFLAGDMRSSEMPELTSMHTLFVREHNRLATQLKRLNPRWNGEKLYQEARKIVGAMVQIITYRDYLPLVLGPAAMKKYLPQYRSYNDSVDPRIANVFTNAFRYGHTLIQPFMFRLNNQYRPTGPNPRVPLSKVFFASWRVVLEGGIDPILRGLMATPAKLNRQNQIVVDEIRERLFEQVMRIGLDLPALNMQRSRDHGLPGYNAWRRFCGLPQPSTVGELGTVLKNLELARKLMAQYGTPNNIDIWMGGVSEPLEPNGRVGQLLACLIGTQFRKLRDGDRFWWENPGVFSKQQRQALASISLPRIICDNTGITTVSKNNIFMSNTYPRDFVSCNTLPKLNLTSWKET
Method: (F) ELISA analysis of cytokine secretion and MPO activity measurement in the indicated cells stimulated with 500 ng/ml LPS for 6 hours (for ELISA assay) or 100 nM PMA for 2 hours (for MPO assay). Data are represented as mean±SD from three independent experiments. Ctrl, no treatment control; ns, not significant.
Myeloperoxidase (MPO) assay. SCF/2i GMPs, blood neutrophils and SCF/2i GMP-derived granulocytes were plated into 96-well plates at a density of 2×10^4 cells/well and cultured in 100 μl RPMI 1640 medium supplemented with 10% FBS. […] The supernatants were harvested and MPO activities were measured using the neutrophil MPO activity assay kit (Cayman, 600620) according to the manufacturer's instructions.

SCF/2i GMPs = test: In vitro differentiation of SCF/2i GMPs, flow cytometry; format: cell-based, mouse
Method: (A) Immunofluorescence and flow cytometry analysis of CD11b and F4/80 expression in cells differentiated from SCF/2i GMPs after treatment with M-CSF for 7 days. Flow cytometry data are represented as mean±SD from three independent experiments. (B) ELISA analysis of cytokine secretion in bone marrow (BM) and SCF/2i GMP-derived macrophages stimulated with 500 ng/ml LPS for 6 hours. Data are represented as mean±SD from three independent experiments. (C) Phagocytosis analysis of SCF/2i GMP-derived macrophages by incubating with FITC-labeled latex beads for 1 hour. Upper panel, a representative fluorescent image (green, FITC-labeled beads; blue, macrophage cell nuclei). Lower panel, flow cytometry analysis of SCF/2i GMP-derived macrophages incubated with (red) or without (blue) FITC-labeled latex beads. Flow cytometry data are represented as mean±SD from three independent experiments. (D) Time-lapse images of tdTomato-positive SCF/2i GMP-derived macrophages incubated with GFP labeled E. coli. The numbers on the images indicate the times in minutes. Arrows and arrowheads indicate the bacteria engulfed by macrophages. (E) Giemsa staining (upper panel) and flow cytometry analysis (lower panel) of SCF/2i GMPs treated with PBS or G-CSF for 3 days. Flow cytometry data are represented as mean±SD (n=5). […] A total of 192×3 wells from three independent experiments were counted for each group. […]

Molecule | formation of colonies with uniform cell morphology [1] | ability to mimic the effect of SKL2001 for the expansion of mouse GMPs (mouse GMPs) | other results
Cc1cccc(-c2nn(C(=S)Nc3ccccc3)cc2-c2ccnc3ccccc23)n1 [A-8301] | clusters of colonies were observed being formed |  | 
Cc1c[nH]c(-c2cnc(NCCNc3ccc(C#N)cn3)nc2-c2ccc(Cl)cc2Cl)n1 [CHIR99021] |  | could not mimic the effect of SKL2001 | 
COc1cccc(-c2cc(NCc3ccc4c(c3)OCO4)nc(N)n2)c1 [Wnt agonist 1] |  | could not mimic the effect of SKL2001 | 
CCCCCCCCCCCCCC(=O)O[C@@H]1[C@@H](C)[C@@]2(O)[C@@H](C=C(CO)C[C@]3(O)C(=O)C(C)=C[C@@H]23)[C@@H]2C(C)(C)[C@]12OC(C)=O [PMA, phorbol myristate acetate] |  |  | MPO activity upon activation (myeloperoxidase (MPO)): significantly increased
Cc1cc([N+](=O)[O-])ccc1NS(=O)(=O)c1cc(Cl)ccc1Cl [FH535] |  |  | effect on expansion of mouse GMPs in SCF/2i (mouse GMPs): not affected
C[S+]([O-])c1ccc(-c2nc(-c3ccncc3)c(-c3ccc(F)cc3)[nH]2)cc1 (centres unmarked) [SB203580] | clusters of colonies were observed being formed |  | 
O=C(Nc1cccc2cccnc12)c1ccc(N2C(=O)[C@@H]3[C@H](C2=O)[C@@H]2C=C[C@H]3C2)cc1 [IWR1] | clusters of colonies were observed being formed |  | effect on expansion of mouse GMPs in SCF/2i (mouse GMPs): not affected
Wnt3a |  | could not mimic the effect of SKL2001 | 
B1 |  |  | cells Ly6G+CD115− (SCF/2i GMPs; SCF/2i GMPs treated for 3 days): more than 80%
B2 |  |  | cells positive for both F4/80 and CD11b (SCF/2i GMPs; SCF/2i GMPs treated for 7 days): more than 99%
